Literature values in US20220184234A1, “METABOLIC TARGETING OF LOW GRADE TUMORS” (SonalaSense, Inc., priority 2020, published 2022).

Test system: tumor
[1] = all experimental groups (5-ALA and FUS)

NCC(=O)CCC(=O)O [5-ALA, 5-aminolevulinic acid]
normalized tumor volume (5-ALA only group (no FUS), untreated controls 32±10 mm^3): 24±6 mm^3 | subjects surviving past 60 days (5-ALA, group sonicated at multiple points within the tumor (MP group)): 50% | survival compared to control animals [1]: improved survival | tumor growth compared to control animals [1]: inhibited tumor growth | tissue damage (rats, 20 mg/kg 5-ALA, sonication at 55.2 W/cm^2 for 20 minutes): suffered tissue damage
